How the values were obtained:
[1] = molecular target: T1, Sodium- and chloride-dependent glycine transporter 1 (Homo sapiens, UniProt P48067); experiment: Inhibition of [3H]glycine uptake at human GlyT1 by radiometric assay
T1 sequence (P48067 whole entry): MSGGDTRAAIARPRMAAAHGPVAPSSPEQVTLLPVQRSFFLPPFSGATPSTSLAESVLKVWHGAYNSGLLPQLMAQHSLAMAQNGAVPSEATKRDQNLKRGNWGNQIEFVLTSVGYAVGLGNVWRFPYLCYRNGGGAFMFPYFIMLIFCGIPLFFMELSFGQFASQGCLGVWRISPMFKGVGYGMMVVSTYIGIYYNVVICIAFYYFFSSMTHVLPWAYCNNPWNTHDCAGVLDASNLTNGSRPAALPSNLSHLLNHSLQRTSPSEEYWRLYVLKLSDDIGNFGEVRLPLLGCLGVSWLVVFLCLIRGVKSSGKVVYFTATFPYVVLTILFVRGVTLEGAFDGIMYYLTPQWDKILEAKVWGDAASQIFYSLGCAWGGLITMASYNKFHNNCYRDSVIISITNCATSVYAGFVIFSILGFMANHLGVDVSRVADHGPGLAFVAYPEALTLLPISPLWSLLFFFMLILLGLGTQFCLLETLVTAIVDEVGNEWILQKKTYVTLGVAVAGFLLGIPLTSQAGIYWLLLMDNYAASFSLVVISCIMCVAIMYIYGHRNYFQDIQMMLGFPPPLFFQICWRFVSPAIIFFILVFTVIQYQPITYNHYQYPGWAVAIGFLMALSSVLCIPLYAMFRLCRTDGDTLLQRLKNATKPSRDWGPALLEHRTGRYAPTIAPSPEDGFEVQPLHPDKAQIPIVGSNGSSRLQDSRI

[2] = molecular target: T2, Sodium- and chloride-dependent glycine transporter 2 (Homo sapiens, UniProt Q9Y345); experiment: Inhibition of [3H]glycine uptake at human GlyT2 by radiometric assay
T2 sequence (Q9Y345 whole entry): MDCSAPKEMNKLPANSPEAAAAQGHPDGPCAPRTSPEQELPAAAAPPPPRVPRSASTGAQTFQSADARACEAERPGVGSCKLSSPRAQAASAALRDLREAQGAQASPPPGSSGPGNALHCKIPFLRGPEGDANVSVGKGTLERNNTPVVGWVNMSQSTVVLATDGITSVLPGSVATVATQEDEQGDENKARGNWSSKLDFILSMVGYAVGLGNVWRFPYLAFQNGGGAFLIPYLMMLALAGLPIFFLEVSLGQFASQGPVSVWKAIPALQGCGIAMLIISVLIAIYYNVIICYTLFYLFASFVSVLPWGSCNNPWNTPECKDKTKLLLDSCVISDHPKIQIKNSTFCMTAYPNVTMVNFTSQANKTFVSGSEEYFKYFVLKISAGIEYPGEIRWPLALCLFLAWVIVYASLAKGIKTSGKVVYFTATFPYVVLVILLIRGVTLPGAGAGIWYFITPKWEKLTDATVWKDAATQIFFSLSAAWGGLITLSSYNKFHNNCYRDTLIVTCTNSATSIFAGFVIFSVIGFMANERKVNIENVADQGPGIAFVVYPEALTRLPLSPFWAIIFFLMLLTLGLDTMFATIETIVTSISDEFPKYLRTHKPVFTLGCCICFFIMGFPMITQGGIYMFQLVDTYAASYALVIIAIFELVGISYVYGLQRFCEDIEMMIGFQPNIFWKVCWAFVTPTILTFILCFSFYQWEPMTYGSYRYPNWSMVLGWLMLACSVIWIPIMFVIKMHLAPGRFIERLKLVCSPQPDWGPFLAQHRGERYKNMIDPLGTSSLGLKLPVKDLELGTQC

Nociceptin receptor = Nociceptin receptor (Homo sapiens, UniProt P41146); experiment: Displacement of [3H]NOP from human NOP receptors expressed in HEK293 cells; type: cell-based
[3] = Intrinsic clearance in human microsome; type: ADME; conditions: microsomes
[4] = Intrinsic clearance in mouse microsome; type: ADME; conditions: microsomes

Nociceptin receptor, sequence (P41146 whole entry): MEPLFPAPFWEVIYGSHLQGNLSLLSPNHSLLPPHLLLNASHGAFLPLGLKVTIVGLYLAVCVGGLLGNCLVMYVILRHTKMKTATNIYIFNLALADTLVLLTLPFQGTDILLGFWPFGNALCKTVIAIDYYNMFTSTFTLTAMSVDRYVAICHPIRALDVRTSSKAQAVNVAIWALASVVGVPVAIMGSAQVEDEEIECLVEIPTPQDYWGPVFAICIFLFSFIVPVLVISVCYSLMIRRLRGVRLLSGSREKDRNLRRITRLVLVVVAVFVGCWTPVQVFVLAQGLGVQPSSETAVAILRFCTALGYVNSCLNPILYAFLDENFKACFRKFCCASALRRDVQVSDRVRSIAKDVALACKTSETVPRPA

SMILES	EC50 [1]	also measured
O=C1NCC(c2ccc(F)cc2)C12CCN(C1CCCCC1(O)c1ccc(C(F)(F)F)cc1)CC2 (stereo not given)	1310 nM	
Cc1ccccc1C1(O)CCCCC1N1CCC2(CC1)C(=O)NCC2c1ccc(F)cc1 (single isomer, unassigned; diastereomer 1)	596 nM	
O=C1NCN(c2ccccc2)C12CCN(C1CCCCC1(O)c1ccccc1)CC2 (stereo not given)	44 nM	EC50 [2]: 72000 nM
CC(C)(C)c1ccc(C2(O)CCCCC2N2CCC3(CC2)C(=O)NCC3c2ccc(F)cc2)cc1 (single isomer, unassigned; diastereomer 1)	> 30000 nM	
O=C1NC[C@@H](c2ccccc2)C12CCN(C1CCCCC1c1ccccc1)CC2 (stereo in doubt; 3)	232 nM	EC50 [2]: 25000 nM; IC50 (Nociceptin receptor): > 10000 nM
COc1cccc(C2(O)CCCCC2N2CCC3(CC2)C(=O)NCC3c2ccccc2)c1 (stereo not given)	> 30000 nM	
Cc1ccccc1C1(O)CCCCC1N1CCC2(CC1)C(=O)NCC2c1ccc(F)cc1 (single isomer, unassigned; diastereomer 4)	69 nM	
Cc1ccc(C2(O)CCCCC2N2CCC3(CC2)C(=O)NCC3c2ccc(F)cc2)cc1 (single isomer, unassigned; diastereomer 3)	437 nM	
COc1ccc(C2(O)CCCCC2N2CCC3(CC2)C(=O)NCC3c2ccc(F)cc2)cc1 (single isomer, unassigned; diastereomer 3)	1130 nM	
COc1ccc(C2(O)CCCCC2N2CCC3(CC2)C(=O)NCC3c2ccc(F)cc2)cc1 (single isomer, unassigned; diastereomer 2)	1180 nM	
O=C1NCC(c2ccccc2)C12CCN(C1CCCCC1(O)c1cccc(F)c1)CC2 (single isomer, unassigned; diastereomer 2)	2600 nM	
COc1ccc(C2(O)CCCCC2N2CCC3(CC2)C(=O)NCC3c2ccccc2)cc1 (stereo not given)	4480 nM	
O=C1NCC(c2ccccc2)C12CCN(C1CCCCC1(O)c1cccc(F)c1)CC2 (single isomer, unassigned; diastereomer 3)	127 nM	
CC(C)(C)c1ccc(C2(O)CCCCC2N2CCC3(CC2)C(=O)NCC3c2ccc(F)cc2)cc1 (single isomer, unassigned; diastereomer 2)	> 30000 nM	
O=C1NCC(c2ccc(F)cc2)C12CCN(C1CCCCC1(O)c1cccc(Cl)c1)CC2 (stereo in doubt; form 1)	118 nM	
O=C1NCC(c2ccc(F)cc2)C12CCN(C1CCCCC1(O)c1ccccc1F)CC2 (single isomer, unassigned; diastereomer 2)	110 nM	
O=C1NCC(c2ccc(F)cc2)C12CCN(C1CCCCC1(O)c1cccc(Cl)c1)CC2 (stereo in doubt; form 2)	73 nM	
O=C1NCC(c2ccccc2)C12CCN(C1CCCCC1(O)c1ccc(F)cc1)CC2 (single isomer, unassigned; diastereomer 2)	825 nM	IC50 (Nociceptin receptor; hek293): > 10000 nM
Cc1ccc(C2(O)CCCCC2N2CCC3(CC2)C(=O)NCC3c2ccc(F)cc2)cc1 (single isomer, unassigned; diastereomer 1)	420 nM	
O=C1NCC(c2ccc(F)cc2)C12CCN(C1CCCCC1(O)c1ccccc1F)CC2 (single isomer, unassigned; diastereomer 1)	596 nM	
Cc1ccc(C2(O)CCCCC2N2CCC3(CC2)C(=O)NCC3c2ccc(F)cc2)cc1 (single isomer, unassigned; diastereomer 2)	> 30000 nM	
O=C1NCC(c2ccc(F)cc2)C12CCN(C1CCCCC1(O)c1cccc(Cl)c1)CC2 (single isomer, unassigned; diastereomer 1)	6250 nM	
COc1cccc(C2(O)CCCCC2N2CCC3(CC2)C(=O)NCC3c2ccc(F)cc2)c1 (single isomer, unassigned; diastereomer 2)	2600 nM	

SMILES	EC50 [1]	also measured
O=C1NCC(c2ccc(F)cc2)C12CCN(C1CCCCC1(O)c1ccccc1F)CC2 (stereo in doubt)	1770 nM	
O=C1NCC(c2ccc(F)cc2)C12CCN(C1CCCCC1(O)c1ccccc1OC(F)(F)F)CC2 (stereo not given)	1390 nM	
Cc1ccccc1C1(O)CCCCC1N1CCC2(CC1)C(=O)NCC2c1ccc(F)cc1 (single isomer, unassigned; diastereomer 3)	17700 nM	
CS(=O)(=O)c1ccc(C2(O)CCCCC2N2CCC3(CC2)C(=O)NCC3c2ccc(F)cc2)cc1 (stereo not given)	18600 nM	
COc1cccc(C2(O)CCCCC2N2CCC3(CC2)C(=O)NCC3c2ccc(F)cc2)c1 (stereo in doubt)	158 nM	
O=C1NCC(c2ccc(F)cc2)C12CCN(C1CCCCC1(O)c1cccc(F)c1)CC2 (single isomer, unassigned; diastereomer 2)	77 nM	microsomal CLint [3]: 11 µL/min/mg; microsomal CLint [4]: 16 µL/min/mg
Cc1ccccc1C1(O)CCCCC1N1CCC2(CC1)C(=O)NCC2c1ccc(F)cc1 (stereo in doubt)	110 nM	
Cc1cccc(C2(O)CCCCC2N2CCC3(CC2)C(=O)NCC3c2ccc(F)cc2)c1 (single isomer, unassigned; diastereomer 2)	10700 nM	
COc1ccc(C2(O)CCCCC2N2CCC3(CC2)C(=O)NCC3c2ccc(F)cc2)cc1 (single isomer, unassigned; diastereomer 1)	3300 nM	
COc1cccc(C2(O)CCCCC2N2CCC3(CC2)C(=O)NCC3c2ccc(F)cc2)c1 (single isomer, unassigned; diastereomer 3)	127 nM	
O=C1NCC(c2ccc(F)cc2)C12CCN(C1CCCCC1(O)c1cccc(F)c1)CC2 (single isomer, unassigned; diastereomer 1)	95 nM	
COc1ccc(C2(O)CCCCC2N2CCC3(CC2)C(=O)NCC3c2ccc(F)cc2)cc1 (stereo in doubt)	158 nM	
Cc1ccc(C2(O)CCCCC2N2CCC3(CC2)C(=O)NCC3c2ccc(F)cc2)cc1 (single isomer, unassigned; diastereomer 4)	132 nM	
O=C1NCC(c2ccc(F)cc2)C12CCN(C1CCCCC1(O)c1ccccc1F)CC2 (single isomer, unassigned; diastereomer 4)	69 nM	microsomal CLint [3]: 28 µL/min/mg; microsomal CLint [4]: 39 µL/min/mg
O=C1NCC(c2ccccc2)C12CCN(C1CCCCC1(O)c1ccc(F)cc1)CC2 (single isomer, unassigned; diastereomer 3)		EC50 [2]: > 30000 nM; IC50 (Nociceptin receptor): > 10000 nM
O=C1NCC(c2ccccc2)C12CCN(C1CCCCC1(O)c1cccc(F)c1)CC2 (single isomer, unassigned; diastereomer 1)	158 nM	
N#Cc1ccc(C2(O)CCCCC2N2CCC3(CC2)C(=O)NCC3c2ccc(F)cc2)cc1 (mixture of isomers)	1950 nM	
O=C1NCC(c2ccc(F)cc2)C12CCN(C1CCCCC1(O)c1cccc(F)c1)CC2 (single isomer, unassigned; diastereomer 4)	646 nM	
Cc1cccc(C2(O)CCCCC2N2CCC3(CC2)C(=O)NCC3c2ccc(F)cc2)c1 (single isomer, unassigned; diastereomer 1)	2640 nM	
O=C1NCC(c2ccc(F)cc2)C12CCN(C1CCCCC1(O)c1cccc(Cl)c1)CC2 (single isomer, unassigned; diastereomer 2)	2340 nM	
COc1cccc(C2(O)CCCCC2N2CCC3(CC2)C(=O)NCC3c2ccc(F)cc2)c1 (single isomer, unassigned; diastereomer 4)	5300 nM	
O=C1NCC(c2ccccc2)C12CCN(C1CCCCC1(O)c1cccc(F)c1)CC2 (single isomer, unassigned; diastereomer 4)	5300 nM	
N#Cc1ccc(C2(O)CCCCC2N2CCC3(CC2)C(=O)NCC3c2ccc(F)cc2)cc1 (single isomer, unassigned; diastereomer 2)	11300 nM	

— ChEMBL document CHEMBL1138974 (Bioorg Med Chem Lett, 2006)
